The text below walks through data of patent publication US9796742B2, “Kinase inhibitors” (Respivert Limited, priority 2012, dated 2017).

One assay has as its target GSK3α (Homo sapiens (Human), UniProt P49840). The assay is described as follows: GSK 3α enzyme inhibition (FRET, Z-LYTE; Method 2). It is filed as biochemical. The method in brief:
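GSK3-α protein preincubated with compound for 105 min, then Z-LYTE FRET peptide and ATP added for 1 h before protease development for 1 h. Phosphorylation taken from coumarin/fluorescein emission ratio; percent inhibition against uninhibited control and IC50 calculated from concentration-response curves.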

Assay [1] relates to TNBS-induced colitis in mice. As to the kind of experiment: TNBS-induced colitis in mice. It is filed as in vivo. As for the experimental part:
Non-fasted, 10-12 week old, male BDF1 mice are dosed by oral gavage twice daily with either vehicle (5 mL/kg), reference item (Budesonide 2.5 mg/kg) or test compound (1 or 5 mg/kg) one day before (Day −1) stimulation of the inflammatory response by treatment with 2,4,6-trinitrobenzenesuiphonic acid (TNBS) (15 mg/mL in 50% ethanol/50% saline). On Day 0 of the study TNBS (200 μL) is administered intra-colonically via a plastic catheter followed by BID dosing of the vehicle, reference or test compound for 2 or 4 days. During the study animals are weighed every day and stool observations are made and recorded as a score, based on stool consistency. At the time of sacrifice on Day 2 (or Day 4) the large intestine is removed and the length and weight recorded. Sections of the colon are taken for either MPO analysis to determine neutrophil infiltration or for histopathology involving scoring to determine disease severity.

Assay [2] has as its system PBMCs. As to the kind of experiment: IL-2 and IFN gamma release in CD3/CD28 stimulated PBMC cells. The following applies: Homo sapiens. It is filed as cell-based. The procedure, abridged: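 They were cultured with compound for 3 days. IL-2 and IFN-γ in supernatants were quantified by sandwich ELISA, and IC50 was derived from the dose-response curve.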
In a further assay the target is c-Src (Homo sapiens (Human), UniProt P12931). As to the kind of experiment: c-Src enzyme inhibition (FRET, Z-LYTE). It is filed as biochemical. The procedure, abridged: (§1)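 Z-LYTE FRET peptide assay with enzyme preincubated with compound for 2 h at RT, then 1 h kinase reaction and 1 h protease development. ATP solutions were 800 μM for c-Src and 60 μM for Syk. Inhibition was taken from the coumarin/fluorescein emission ratio, and IC50 from concentration-response curves.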

Another assay has as its target Syk (Homo sapiens (Human), UniProt P43405). The assay is described as follows: Syk enzyme inhibition (FRET, Z-LYTE). It is filed as biochemical. The procedure, abridged: as §1
Assay [3] has as its system PBMCs. As to the kind of experiment: LPS-induced TNFα/IL-8 release in PBMC cells. Type of assay: cell-based. The following applies: Homo sapiens, LPS-stimulated PBMCs, IL-8, read-out: IC50 Values for Inhibition of Cytokine Release, PBMCs IL-8. The procedure, abridged:
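Cytokines (TNFα, IL-8) in supernatants were quantified by sandwich ELISA after a 24 h challenge with 1 ng/mL E. coli LPS at 37° C, 5% CO2. Healthy-donor PBMCs had been exposed to compound for 2 h beforehand. IC50 values were fitted from the concentration-response curves.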

The next assay has as its system HT29 cells. The assay is described as follows: IL-1β-induced IL-8 release in HT29 cells. It is filed as cell-based. The following applies: Homo sapiens, HT-29, IL-1β-stimulated HT29 cells, read-out: IC50 Values for Inhibition of Cytokine Release, HT29 cells IL-8. The protocol: HT29 cells, a human colon adenocarcinorna cell line, are plated in a 96 well plate (24 hrs) and pre-treated with compounds at the desired concentration for 2 hours before addition of 5 ng/mL of IL-1β (Abcam) for 24 hours. Supernatants are harvested for IL-8 quantification by Sandwich ELISA (Duo-set, R&D System). The IC50 is determined from the dose response curve.

For a further assay, the target named is p38 MAPKα (Homo sapiens (Human), UniProt Q16539). As to the kind of experiment: p38 MAPKα enzyme inhibition (FRET, Z-LYTE; Method 2). It is filed as biochemical. The procedure, abridged: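 p38 MAPKα (2.5 μL of 200 ng/mL stock) preincubated 2 h at RT with compound, then kinase reaction 1 h at RT with readout via MAPKAP-K2 activation using a Z-LYTE FRET peptide. Protease development 1 h; coumarin/fluorescein emission ratio gives phosphorylation. % inhibition versus uninhibited control; IC50 from concentration-response curve.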
p38 MAPKα, sequence (Q16539 whole entry): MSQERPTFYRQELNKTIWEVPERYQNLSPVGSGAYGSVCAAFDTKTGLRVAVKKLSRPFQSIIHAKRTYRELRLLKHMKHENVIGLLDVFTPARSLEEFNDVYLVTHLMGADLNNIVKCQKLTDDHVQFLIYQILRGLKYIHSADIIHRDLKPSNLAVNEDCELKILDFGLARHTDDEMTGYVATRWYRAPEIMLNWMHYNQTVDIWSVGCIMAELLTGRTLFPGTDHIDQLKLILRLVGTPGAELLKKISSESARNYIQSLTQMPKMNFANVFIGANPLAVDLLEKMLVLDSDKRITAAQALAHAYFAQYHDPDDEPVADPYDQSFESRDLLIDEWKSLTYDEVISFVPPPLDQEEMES

GSK3α, sequence (P49840 whole entry): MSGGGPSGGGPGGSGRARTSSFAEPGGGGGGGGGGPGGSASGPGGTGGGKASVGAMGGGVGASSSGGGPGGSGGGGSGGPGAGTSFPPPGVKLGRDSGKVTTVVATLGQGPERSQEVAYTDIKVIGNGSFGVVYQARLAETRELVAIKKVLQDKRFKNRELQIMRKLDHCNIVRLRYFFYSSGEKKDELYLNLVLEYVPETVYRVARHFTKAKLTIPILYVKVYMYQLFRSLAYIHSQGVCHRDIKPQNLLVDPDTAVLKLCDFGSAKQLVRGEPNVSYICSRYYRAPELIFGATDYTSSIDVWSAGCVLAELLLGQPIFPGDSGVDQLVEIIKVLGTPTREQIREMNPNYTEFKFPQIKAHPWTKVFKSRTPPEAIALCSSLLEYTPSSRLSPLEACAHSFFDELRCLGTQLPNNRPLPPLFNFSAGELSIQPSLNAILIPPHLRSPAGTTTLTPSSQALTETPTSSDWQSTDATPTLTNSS
c-Src, sequence (P12931 whole entry, looked up): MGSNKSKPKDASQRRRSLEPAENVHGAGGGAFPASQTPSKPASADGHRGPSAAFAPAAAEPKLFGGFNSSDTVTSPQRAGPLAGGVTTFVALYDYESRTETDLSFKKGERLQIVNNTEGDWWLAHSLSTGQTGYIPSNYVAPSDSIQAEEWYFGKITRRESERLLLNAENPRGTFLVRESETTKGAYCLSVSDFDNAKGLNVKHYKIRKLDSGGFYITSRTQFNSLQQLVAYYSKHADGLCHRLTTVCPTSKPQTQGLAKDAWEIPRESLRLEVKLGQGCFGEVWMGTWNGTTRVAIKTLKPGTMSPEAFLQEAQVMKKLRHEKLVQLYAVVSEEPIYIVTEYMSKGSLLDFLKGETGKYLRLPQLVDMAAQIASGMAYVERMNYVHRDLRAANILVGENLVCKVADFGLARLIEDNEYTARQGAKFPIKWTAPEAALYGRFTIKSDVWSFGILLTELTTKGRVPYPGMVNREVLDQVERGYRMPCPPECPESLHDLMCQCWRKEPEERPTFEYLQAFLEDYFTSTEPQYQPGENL

In the case of `Cc1cc(Nc2nccc(Oc3ccc(NC(=O)Nc4cc(C(C)(C)C)nn4-c4cccc(CP(C)(C)=O)c4)c4ccccc34)n2)cc2cn[nH]c12` [Example 32, 1-(3-(tert-Butyl)-1-(3-((dimethylphosphoryl)methyl)phenyl)-1H-pyrazol-5-yl)-3-(4-((2-((7-methyl-1H-indazol-5-yl)amino)pyrimidin-4-yl)oxy)naphthalen-1-yl)urea], the half-inhibitory concentration (IC50) (in general, the concentration that inhibits the measured activity by half) at GSK3α was 1320 nM; with PBMCs [2] (IFNγ, read-out: IC50 Values for Inhibition of Cytokine Release, PBMCs IFNγ) it was 2.3 nM; with PBMCs [2] (IL-2, read-out: IC50 Values for Inhibition of Cytokine Release, PBMCs IL-2) it was 4.2 nM; on c-Src it was 5 nM; against Syk, 5 nM; with PBMCs [3] it was 1.3 nM. The half-maximal inhibitory concentration (IC50) in the assay with HT29 cells was 1.9 nM; on p38 MAPKα it was 60 nM. For the same compound, the “TNBS Ulcer grade” value in assay [1] (5 mg/kg oral, conducted over 2 days, vehicle 3.6 ± 0.3 (exp. 1), 4.4 ± 0.2 (exp. 2)) was 3.3 ± 0.4. For the same compound, the “TNBS LP inflammation” value in assay [1] (5 mg/kg oral, conducted over 2 days, vehicle 3.9 ± 0.3 (exp. 1), 4.5 ± 0.2 (exp. 2)) is 2.7 ± 0.4. In addition, in assay [1] (conducted over 2 days), the “activity in in vivo model of colonic inflammation (histopathology analysis)” value was “significant activity”. For the same compound, the “inflammatory cell infiltrate in the reticular and laminar propria zone” value in assay [1] (dosed orally at 5 mg/kg) was “marked reduction”. In assay [1] (dosed orally at 5 mg/kg), the “ulcer grade and epithelial repair compared to the vehicle control” value is on record as “marked improvements”.
